From patent EP0174833A2, “Triazoloquinoline derivatives” (MAY & BAKER LIMITED, priority 1984, dated 1986)

test system: lipoxygenase; experiment: lipoxygenase inhibition in vitro; type: biochemical; details: concentration 0.0001M, 100 µM

Point of comparison: CCOC(=O)C(=CNc1ccc2c(c1)c(C)cc1nnc(-c3ccc(C)cc3)n12)C(=O)OCC [B, 7-[2,2-bis(ethoxycarbonyl)ethen-l-ylamino]-5-methyl-l-(4-methylphenyl)-1,2,4-triazolo-[4,3-a]quinoline], “% inhibition of lipoxygenase” value 100%. Against it:
- CCOC(=O)C(=CNc1ccc2c(c1)c(C)cc1nnc(-c3ccccc3)n12)C(=O)OCC [A, 7-[2,2-bis(ethoxycarbonyl)ethen-l-ylamino]-5-methyl-1-phenyl-1,2,4-triazolo[4,3-a]quinoline] — the same, 100%
- CCOC(=O)C(=CNc1ccc2c(c1)c(C)cc1nnc(-c3ccc(C(C)(C)C)cc3)n12)C(=O)OCC [D, 1-(4-tert-butylphenyl)-7-[2,2-bis(ethoxycarbonyl)ethen-1-ylamino)-5-methyl-1,2,4-triazolo[4,3-a]quinoline] — lower, 98%
- CCOC(=O)C(=CNc1ccc(-c2nnc3cc(C)c4ccccc4n23)cc1)C(=O)OCC [E, 1-[4-{2,2-bis(ethoxycarbonyl)ethen-1-yl-amino}phenyl]-5-methyl-1,2,4-triazolo[4,3-a]-quinoline] — lower, 50%

test system: mouse macrophage cells; experiment: reduction of the inhibition of migration of incubated macrophage cells after oral dosing (similar to Likhite et al.); type: in vivo; details: mice, twice administered orally, one hour before and four hours after antigen, dose each time that would reduce by 50% the inhibition of macrophage migration
Procedure: For example, from tests in mice it was calculated that compounds of formula I, when twice administered orally, one hour before and four hours after the administration of antigen, each time at the doses shown in the following Table I, would reduce by 50% the inhibition of migration of incubated mouse macrophage cells measured in a manner similar to that described by Likhite et al., Cellular Immunology, Vol. 5, 1972, page 377. This is a measure of antagonism or reduction of the levels of lymphokines and is indicative of utility in the treatment of arthritic patients.

Point of comparison: CCOC(=O)C(=CNc1ccc2c(c1)c(C)cc1nnc(-c3ccccc3)n12)C(=O)OCC [A, 7-[2,2-bis(ethoxycarbonyl)ethen-l-ylamino]-5-methyl-1-phenyl-1,2,4-triazolo[4,3-a]quinoline], ED50 7 mg/kg. Against it:
- CCOC(=O)C(=CNc1ccc2c(c1)c(C)cc1nnc(-c3ccc(OC)cc3)n12)C(=O)OCC [C, 7-[2,2-bis(ethoxycarbonyl)ethen-l-ylamino]-1-(4-methoxyphenyl)-5-methyl-1,2,4-triazolo-[4,3-a]quinoline] — not separable, < 10 mg/kg
